{"source": "paper PMC10146491", "about": "“Meroterpenoids from Gongolaria abies-marina against Kinetoplastids: In Vitro Activity and Programmed Cell Death Study” (Pharmaceuticals, 2023)", "key": {"[1]": {"system": "promastigotes of L. amazonensis", "assay": "Leishmanicidal activity assay (Alamar Blue), promastigotes", "assay_type": "cell-based, Leishmania amazonensis", "experimental": "(§1) To carry out the experiments, promastigotes of Leishmania amazonensis (MHOM/BR/77/LTB0016) and L. donovani (MHOM/IN/90/GE1F8R) and epimastigotes of Trypanosoma cruzi (Y strain) were employed. Leishmania species were cultured in Schneider’s medium (Sigma-Aldrich, Madrid, Spain), supplemented with 10% fetal bovine serum (VWR, Biowest, Nuaillé, France) and incubated at 26 °C. RPMI 1640 medium (Gibco, Thermo Fisher, Madrid, Spain) with or without phenol red was also used to culture the parasites at the same temperature. Epimastigotes of T. cruzi were cultured in liver infusion tryptose (LIT) medium supplemented with 10% fetal bovine serum at 26 °C. A cytotoxicity assay was performed using a murine macrophage cell line J774A.1 (ATCC TIB-67), which was maintained in Dulbecco’s modified Eagle’s medium (Gibco, Thermo Fisher, Madrid, Spain) supplemented with 10% of fetal bovine serum at 37 °C in a 5% CO2 atmosphere.\n(§2) With the objective of determining the antiparasitic activity of the compounds isolated from G. abies-marina, leishmanicidal activity assays were performed against promastigote stages of L. amazonensis and L. donovani, as well as a trypanocidal activity assay performed against epimastigote stages of T. cruzi. In both parasites, a colorimetric assay was used based on the Alamar Blue reagent (Life Technologies, Madrid, Spain) as previously described by Bethencourt-Estrella et al. (2021).\n(§3) In a sterile 96 well-plate, serial dilutions of the extracts, fractions or compounds isolated from G. abies-marina were performed in RPMI 1640 medium without phenol red (in the case of Leishmania spp.) or in LIT (in the case of T. cruzi) with a final volume of 100 µL. Parasites were added to wells to reach a concentration of 5 × 10^5 (Leishmania spp.) or 2.5 × 10^5 (T. cruzi) until a final volume of 200 µL/well. Next, 10% of Alamar Blue® was placed into each well and the plate was incubated for 72 h at 26 °C. Finally, the fluorescence of each well was measured using an EnSpire® Multimode Plate Reader (Perkin Elmer, Madrid, Spain) (544 nm excitation, 590 nm emission) and the concentration that inhibits 50% of the parasite population (IC50) was calculated using a non-linear regression analysis with 95% confidence limits. Miltefosine and benznidazol were used as reference drugs. To analyze the data and calculate the IC50, SigmaPlot 12.0 statistical analysis software (Systat Software Inc, Palo Alto, CA, USA) was used.\n(§4) The 50% inhibitory concentration (IC50) and 50% cytotoxic concentration (CC50) values were obtained using Sigma Plot 12.0 statistical analysis software (Systat Software) and calculated using a non-linear regression analysis with 95% confidence limits. Leishmanicidal and trypanocidal activity assays, as well as cytotoxicity assays, were performed three times on different days, and the results were expressed as means ± standard deviations. The analysis of variance was determined using a one-way ANOVA using the GraphPad.PRISM® 9.0 software program (GraphPad Software, San Diego, CA, USA). Differences at p < 0.05 were considered statistically significant."}, "[2]": {"system": "promastigotes of L. donovani", "assay": "Leishmanicidal activity assay (Alamar Blue), promastigotes", "assay_type": "cell-based, Leishmania donovani", "experimental": "as §1, §2, §3, §4"}, "[3]": {"system": "epimastigotes of Trypanosoma cruzi", "assay": "Trypanocidal activity assay (Alamar Blue), epimastigotes", "assay_type": "cell-based", "experimental": "as §1, §2, §3, §4"}, "[4]": {"assay": "Cytotoxicity assay (Alamar Blue)", "assay_type": "cell-based", "conditions": "mouse, J774A.1 murine macrophage cell line, J774A.1, 24 h, read-out: Cytotoxicity CC50, murine macrophages", "experimental": "as §1\nIn a sterile 96-well plate, murine macrophages of the cell line J774A.1 were placed to reach an amount of 10^5 cells per well using RPMI 1640 medium without phenol red. After murine macrophage attachment, 50 µL serial dilutions of the isolated compounds were added in each well until reaching a final volume of 100 µL. Next, 10% of Alamar Blue® was placed into each well and the plate was incubated for 24 h at 37 °C with a 5% CO2 atmosphere. Finally, the plates were analyzed using an EnSpire® Multimode Plate Reader (PerkinElmer, Madrid, Spain), as described in the previous section, and the 50% cytotoxic concentration (CC50) values were calculated.\nas §4"}, "[5]": {"system": "intracellular amastigotes of L. amazonensis", "assay": "In vitro effect against amastigote stage in infected macrophages", "assay_type": "cell-based, Leishmania amazonensis", "experimental": "To determine the in vitro effect against the amastigote stage of L. amazonensis, murine macrophages were infected. In a sterile 96 well-plate, macrophages of the J774A.1 cell line were placed in RPMI 1640 to reach 10^5 macrophages per well. This plate was incubated at 37 °C in a 5% CO2 atmosphere. After one hour of incubation, 100 µL of stationary-phase promastigotes of 7-day-old culture was added in a 10:1 ratio (10^6 parasites per well) and the plates were re-incubated at 37 °C for 24 h to achieve maximum infection. Then, the wells were washed with fresh medium to remove non-phagocytosed promastigotes. The infected macrophages were treated with the compounds isolated for 24 h. Then, the medium was removed carefully to be replaced by 30 μL of 0.05% SDS and the plate was shaken for 30 s. After broke macrophages, 170 μL of Schneider’s medium was added to each well to give a final volume of 200 μL and 20 μL of Alamar Blue® was added to the plate being incubated at 26 °C for 72 h, as described by López-Arencibia et al. (2017). After 72 h of incubation, the plates were analyzed using the same protocol for the promastigote test."}, "[6]": {"system": "L. amazonensis promastigotes", "assay": "ATP level analysis (Cell Titer-Glo)", "assay_type": "cell-based, Leishmania amazonensis", "conditions": "IC90 of compound, 24 h", "experimental": "(§5) To study the mechanism of cell death induced in parasites by compounds isolated from Gongolaria abies-marina, a common step was carried out to perform the following five experiments. The promastigotes of Leishmania spp. and epimastigotes of T. cruzi were incubated at the IC90 levels of the compounds (previously calculated) for 24 h at 26 °C. After incubation, the parasites were centrifuged at 3000 rpm for 10 min at 4 °C. The pellets were resuspended following the manufacturer’s instructions for each kit. After the incubation of promastigotes and epimastigotes of the parasites with the IC90 of the compounds, the changes in ATP levels were measured using a Cell Titer-Glo® Luminescent Cell Viability Assay (Promega, WI, USA). The assay was carried out in a white 96-well plate following the manufacturer’s instructions, as previously described by Cartuche et al. (2020). The luminescence was measured using an EnSpire® Multimode Plate Reader (PerkinElmer, Madrid, Spain)."}, "[7]": {"system": "L. donovani promastigotes", "assay": "ATP level analysis (Cell Titer-Glo)", "assay_type": "cell-based, Leishmania donovani", "conditions": "IC90 of compound, 24 h", "experimental": "as §5"}, "T. cruzi epimastigotes [8]": {"system": "T. cruzi epimastigotes", "assay": "ATP level analysis (Cell Titer-Glo)", "assay_type": "cell-based, Trypanosoma cruzi", "conditions": "IC90 of compound, 24 h", "experimental": "as §5"}, "[9]": {"system": "L. amazonensis promastigotes", "assay": "Mitochondrial membrane potential (JC-1 assay)", "assay_type": "cell-based, Leishmania amazonensis", "conditions": "IC90, 24 h", "experimental": "(§6) To study the mechanism of cell death induced in parasites by compounds isolated from Gongolaria abies-marina, a common step was carried out to perform the following five experiments. The promastigotes of Leishmania spp. and epimastigotes of T. cruzi were incubated at the IC90 levels of the compounds (previously calculated) for 24 h at 26 °C. After incubation, the parasites were centrifuged at 3000 rpm for 10 min at 4 °C. The pellets were resuspended following the manufacturer’s instructions for each kit. A JC-1 Mitochondrial Membrane Potential Assay Kit® (Cayman Chemical, Ann Arbor, MI, USA) was used to analyze variations in the mitochondrial membrane potential of the parasites after incubation at the IC90 levels of the compounds. After centrifugation, the parasites were resuspended in the same buffer and transferred to a black 96-well plate. JC-1 was added following the manufacturer’s instructions as also described by López-Arencibia et al. (2020). Green and red fluorescence was measured using an EnSpire® Multimode Plate Reader (PerkinElmer, Madrid, Spain)."}, "[10]": {"system": "L. donovani promastigotes", "assay": "Mitochondrial membrane potential (JC-1 assay)", "assay_type": "cell-based, Leishmania donovani", "conditions": "IC90, 24 h", "experimental": "as §6"}, "T. cruzi epimastigotes [11]": {"system": "T. cruzi epimastigotes", "assay": "Mitochondrial membrane potential (JC-1 assay)", "assay_type": "cell-based, Trypanosoma cruzi", "conditions": "IC90, 24 h", "experimental": "as §6"}}}
{"smiles": "COc1c(C)cc(O)cc1C/C=C(\\C)CC(=O)/C=C(\\C)CCCC(C)=O", "note": "[Cystomexicone B (1), cystomexicone B]", "values": [{"measurement": "Selectivity index (CC50/IC50), L. amazonensis", "setting": "[1]; CC50 in murine macrophages", "value": "> 7.61"}, {"measurement": "IC50", "setting": "[1]; Leishmania amazonensis, 72 h, Alamar Blue, read-out: Antikinetoplastid activity IC50, L. amazonensis", "value": "36.6 ± 4.24", "unit": "µM"}, {"measurement": "Selectivity index (CC50/IC50), L. donovani", "setting": "[2]; CC50 in murine macrophages", "value": "> 1.12"}, {"measurement": "IC50", "setting": "[2]; Leishmania donovani, 72 h, Alamar Blue, read-out: Antikinetoplastid activity IC50, L. donovani", "value": "248.3 ± 0.94", "unit": "µM"}, {"measurement": "Selectivity index (CC50/IC50), T. cruzi", "setting": "[3]; CC50 in murine macrophages", "value": "> 14.53"}, {"measurement": "IC50", "setting": "[3]; Trypanosoma cruzi, 72 h, Alamar Blue, read-out: Antikinetoplastid activity IC50, T. cruzi", "value": "19.2 ± 2.62", "unit": "µM"}, {"measurement": "CC50 at 24 h", "setting": "[4]", "value": "> 279", "unit": "µM"}, {"measurement": "Selectivity index (CC50/IC50), amastigotes of L. amazonensis", "setting": "[5]; CC50 in murine macrophages", "value": ">11.36"}, {"measurement": "IC50", "setting": "[5]; Leishmania amazonensis, J774.A1, intracellular amastigotes in J774A.1 macrophages, 24 h treatment", "value": "24.6 ± 0.83", "unit": "µM"}, {"measurement": "ATP levels relative to negative control", "setting": "[6]", "value": "significantly decreased"}, {"measurement": "ATP levels relative to negative control", "setting": "[7]", "value": "significantly decreased"}, {"measurement": "ATP levels relative to negative control", "setting": "T. cruzi epimastigotes [8]", "value": "significantly decreased"}, {"measurement": "ATP levels relative to negative control", "setting": "T. cruzi epimastigotes [8]; listed as cystomexicone B (1)", "value": "most affected"}, {"measurement": "Mitochondrial membrane potential changes (JC-1)", "setting": "[9]", "value": "does not produce significant changes"}, {"measurement": "Mitochondrial membrane potential changes (JC-1)", "setting": "[10]", "value": "does not produce significant changes"}, {"measurement": "Mitochondrial membrane potential changes (JC-1)", "setting": "T. cruzi epimastigotes [11]", "value": "does not produce significant changes"}]}
